# Laboratory results from PubChem BioAssay AID330 (DTP/NCI, 2004).
# Where “and” joins values, the source holds several entries; their conditions need not be identical. Identical values can stand only once. Toxic doses and inconclusive results are not listed.
# Tested on: P388 leukemia ip, CD2F1 mice, survival T/C
# Experiment: NCI In Vivo Anticancer Drug Screen. Data for tumor model P388 Leukemia (intraperitoneal) in CD2F1 (CDF1) mice
# Conditions: endpoint: median survival time, higher = longer survival
# Procedure, shortened: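 Mice carrying the transplanted tumor received test compound or vehicle. Survival was recorded in each group, and the value is the treated-group measurement divided by that of the vehicle-treated control group.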
# [1] = dose: 50.0 mg/kg/injection, schedule: Q01DX009 (ip), vehicle: Klucel (hydroxypropylcellulose) (HPC)
# [2] = dose: 50.0 mg/kg/injection, schedule: Q01DX009 (ip), vehicle: saline with Tween-80
# [3] = dose: 100.0 mg/kg/injection, schedule: Q01DX009 (ip), vehicle: Klucel (hydroxypropylcellulose) (HPC)
# [4] = dose: 100.0 mg/kg/injection, schedule: Q01DX009 (ip), vehicle: saline with Tween-80
# [5] = dose: 200.0 mg/kg/injection, schedule: Q01DX009 (ip), vehicle: saline with Tween-80
# [6] = dose: 12.5 mg/kg/injection, schedule: Q01DX009 (ip), vehicle: saline with Tween-80
# [7] = dose: 25.0 mg/kg/injection, schedule: Q01DX009 (ip), vehicle: saline with Tween-80
# [8] = dose: 50.0 mg/kg/injection, schedule: Q01DX005 (ip), vehicle: saline with Tween-80
# [9] = dose: 50.0 mg/kg/injection, schedule: Q01DX009 (ip), vehicle: saline
# [10] = dose: 100.0 mg/kg/injection, schedule: Q01DX009 (ip), vehicle: saline
# [11] = dose: 200.0 mg/kg/injection, schedule: Q01DX009 (ip), vehicle: saline
# [12] = dose: 60.0 mg/kg/injection, schedule: Q01DX005 (ip), vehicle: saline with Tween-80
# [13] = dose: 120.0 mg/kg/injection, schedule: Q01DX005 (ip), vehicle: saline with Tween-80
# [14] = dose: 50.0 mg/kg/injection, schedule: Q01DX005 (ip), vehicle: Klucel (hydroxypropylcellulose) (HPC)
# [15] = dose: 100.0 mg/kg/injection, schedule: Q01DX005 (ip), vehicle: Klucel (hydroxypropylcellulose) (HPC)
# [16] = dose: 200.0 mg/kg/injection, schedule: Q01DX005 (ip), vehicle: Klucel (hydroxypropylcellulose) (HPC)
smiles,measurement,setting,value
Cc1ccc([N+](=O)[O-])c2ccccc12,T/C,[1],113 % of control and 97 % of control
same,T/C,[2],109 % of control
same,T/C,[3],100 % of control and 98 % of control
same,T/C,[4],100 % of control
same,T/C,"dose: 200.0 mg/kg/injection, schedule: Q01DX009 (ip), vehicle: Klucel (hydroxypropylcellulose) (HPC)",103 % of control and 120 % of control
same,T/C,[5],96 % of control
same,T/C,"dose: 400.0 mg/kg/injection, schedule: Q01DX009 (ip), vehicle: Klucel (hydroxypropylcellulose) (HPC)",86 % of control and 97 % of control
CCCn1c2nc(=O)n(C)c(=O)c-2cc2ccccc21,T/C,"dose: 10.0 mg/kg/injection, schedule: Q01DX009 (ip), vehicle: saline with Tween-80",105 % of control
same,T/C,"dose: 20.0 mg/kg/injection, schedule: Q01DX009 (ip), vehicle: saline with Tween-80",116 % of control
same,T/C,"dose: 40.0 mg/kg/injection, schedule: Q01DX009 (ip), vehicle: saline with Tween-80",111 % of control
OCCN1CCN(CCCN2c3ccccc3Sc3ccc(C(F)(F)F)cc32)CC1,T/C,"dose: 7.5 mg/kg/injection, schedule: Q04DX003 (ip), vehicle: saline",111 % of control
same,T/C,"dose: 15.0 mg/kg/injection, schedule: Q04DX003 (ip), vehicle: saline",120 % of control
same,T/C,"dose: 60.0 mg/kg/injection, schedule: Q04DX003 (ip), vehicle: saline",123 % of control
O=C(/C=C/c1ccc(Cl)c(Cl)c1)c1ccc(Cl)cc1,T/C,[6],100 % of control
same,T/C,[7],100 % of control
same,T/C,[2],100 % of control
C[C@]12CC[C@H](O)CC1=CC[C@@H]1[C@@H]2CC[C@]2(C)c3nc4ccccc4cc3C[C@@H]12,T/C,[6],104 % of control
same,T/C,"dose: 12.5 mg/kg/injection, schedule: Q04DX003 (ip), vehicle: saline with Tween-80",100 % of control
same,T/C,[7],100 % of control
same,T/C,"dose: 25.0 mg/kg/injection, schedule: Q04DX003 (ip), vehicle: saline with Tween-80",100 % of control
same,T/C,[2],95 % of control
same,T/C,"dose: 50.0 mg/kg/injection, schedule: Q04DX003 (ip), vehicle: saline with Tween-80",90 % of control
O=C(c1ccncc1)c1cccc(Cl)c1,T/C,[2],103 % of control
same,T/C,[4],108 % of control
same,T/C,[5],104 % of control
[Co].c1c[nH]cn1.c1c[nH]cn1.c1c[nH]cn1.c1c[nH]cn1.c1c[nH]cn1.c1c[nH]cn1,T/C,"dose: 12.5 mg/kg/injection, schedule: Q01DX005 (ip), vehicle: saline with Tween-80",103 % of control
same,T/C,"dose: 25.0 mg/kg/injection, schedule: Q01DX005 (ip), vehicle: saline with Tween-80",94 % of control
same,T/C,[8],103 % of control and 107 % of control
NC1CNC(=O)NC1=O (stereo not given),T/C,"dose: 50.0 mg/kg/injection, schedule: Q01DX005 (ip), vehicle: saline",101 % of control
same,T/C,"dose: 100.0 mg/kg/injection, schedule: Q01DX005 (ip), vehicle: saline",100 % of control
same,T/C,"dose: 200.0 mg/kg/injection, schedule: Q01DX005 (ip), vehicle: saline",101 % of control
Cc1ccc(-c2cs/c(=N\N=C3/CSC(=O)N3Cc3ccccc3)n2-c2ccccc2)cc1,T/C,"dose: 100.0 mg/kg/injection, schedule: Q04DX002 (ip), vehicle: Klucel (hydroxypropylcellulose) (HPC)",98 % of control
same,T/C,"dose: 200.0 mg/kg/injection, schedule: Q04DX002 (ip), vehicle: Klucel (hydroxypropylcellulose) (HPC)",89 % of control
O=S(=O)(OCC(O)C1OCC(O)C1O)c1ccccc1 (stereo not given),T/C,[9],98 % of control
same,T/C,[10],100 % of control
same,T/C,[11],105 % of control
O=C(CC1=NC2NN(c3ccccc3)C(=O)C2=C1CC(=O)c1ccc([N+](=O)[O-])cc1)c1ccc([N+](=O)[O-])cc1 (stereo not given),T/C,[12],99 % of control
same,T/C,[13],105 % of control
same,T/C,"dose: 240.0 mg/kg/injection, schedule: Q01DX005 (ip), vehicle: saline with Tween-80",104 % of control
O=S(=O)(O)SCCN1CCOCC1,T/C,[10],90 % of control
same,T/C,[11],115 % of control
same,T/C,"dose: 400.0 mg/kg/injection, schedule: Q01DX009 (ip), vehicle: saline",110 % of control
CC(C)C1(C(=O)NNC(=O)CCCc2ccc(N(CCCl)CCCl)cc2)OC2(O)CCCCCN2C1=O (stereo not given),T/C,"dose: 6.25 mg/kg/injection, schedule: Q04DX003 (ip), vehicle: Klucel (hydroxypropylcellulose) (HPC)",109 % of control
same,T/C,"dose: 12.5 mg/kg/injection, schedule: Q04DX003 (ip), vehicle: Klucel (hydroxypropylcellulose) (HPC)",121 % of control
same,T/C,"dose: 100.0 mg/kg/injection, schedule: Q04DX003 (ip), vehicle: Klucel (hydroxypropylcellulose) (HPC)",184 % of control
COc1ccccc1N1C(=O)CSC1=Nc1ccccc1,T/C,[9],98 % of control
same,T/C,[10],96 % of control
same,T/C,[11],100 % of control
Nc1nc(N)c(-c2cccc(Cl)c2)c(CBr)n1,T/C,[6],113 % of control
same,T/C,[7],114 % of control
BrC1/C=C\CC(Br)/C=C\C1 (stereo not given),T/C,[2],110 % of control
same,T/C,[4],117 % of control
same,T/C,[5],115 % of control
C[C@H](N)C(=O)/C=C/c1ccccc1,T/C,"dose: 10.0 mg/kg/injection, schedule: Q01DX005 (ip), vehicle: saline",101 % of control
same,T/C,"dose: 20.0 mg/kg/injection, schedule: Q01DX005 (ip), vehicle: saline",100 % of control
same,T/C,"dose: 40.0 mg/kg/injection, schedule: Q01DX005 (ip), vehicle: saline",98 % of control
O=C1CC2C(=O)N(Cc3ccccc3)C(=O)C2C(=O)N1 (stereo not given),T/C,[8],99 % of control
same,T/C,"dose: 100.0 mg/kg/injection, schedule: Q01DX005 (ip), vehicle: saline with Tween-80",97 % of control
same,T/C,"dose: 200.0 mg/kg/injection, schedule: Q01DX005 (ip), vehicle: saline with Tween-80",92 % of control
COC(=O)C1(C(=O)OC)ON1C(C)(C)C (stereo not given),T/C,[14],100 % of control
same,T/C,[15],96 % of control
same,T/C,[16],97 % of control
CC[C@]1(O)CN2CCc3c([nH]c4ccccc34)[C@@](C(=O)OC)(c3cc4c(cc3OC)N(C)[C@H]3[C@@](O)(C(=O)OC)[C@H](OC(C)=O)[C@]5(CC)C=CCN6CC[C@]43[C@@H]65)C[C@H](C2=O)[C@H]1O,T/C,"dose: 4.0 mg/kg/injection, schedule: Q01DX001 (ip), vehicle: water",115 % of control
same,T/C,"dose: 8.0 mg/kg/injection, schedule: Q01DX001 (ip), vehicle: water",117 % of control
same,T/C,"dose: 16.0 mg/kg/injection, schedule: Q01DX001 (ip), vehicle: water",115 % of control and 124 % of control
same,T/C,"dose: 128.0 mg/kg/injection, schedule: Q01DX001 (ip), vehicle: water",150 % of control
CC(C)=CCC1=C(C)C(=O)C(C)=C(C)C1=O,T/C,"dose: 12.5 mg/kg/injection, schedule: Q01DX009 (ip), vehicle: distilled water + Tween-80 + alcohol",100 % of control
same,T/C,"dose: 25.0 mg/kg/injection, schedule: Q01DX009 (ip), vehicle: distilled water + Tween-80 + alcohol",98 % of control
same,T/C,"dose: 50.0 mg/kg/injection, schedule: Q01DX009 (ip), vehicle: distilled water + Tween-80 + alcohol",100 % of control
same,T/C,"dose: 100.0 mg/kg/injection, schedule: Q01DX009 (ip), vehicle: distilled water + Tween-80 + alcohol",98 % of control
same,T/C,"dose: 200.0 mg/kg/injection, schedule: Q01DX009 (ip), vehicle: distilled water + Tween-80 + alcohol",86 % of control
CCOC(=O)C(=CNc1ccc2n[nH]nc2c1)C(=O)OCC,T/C,[1],100 % of control
same,T/C,[3],108 % of control
NC(=O)c1cccn(-c2ccccc2)c1=S,T/C,[14],89 % of control
same,T/C,[15],105 % of control
same,T/C,[16],105 % of control
Cc1ccc(Cl)cc1N=Cc1ccccc1O,T/C,"dose: 100.0 mg/kg/injection, schedule: Q04DX003 (ip), vehicle: saline with Tween-80",100 % of control
same,T/C,"dose: 200.0 mg/kg/injection, schedule: Q04DX003 (ip), vehicle: saline with Tween-80",95 % of control
same,T/C,"dose: 400.0 mg/kg/injection, schedule: Q04DX003 (ip), vehicle: saline with Tween-80",100 % of control
CC1=C(C#N)C(=O)NC1(C)O (stereo not given),T/C,[14],98 % of control and 95 % of control
same,T/C,[15],100 % of control
same,T/C,[16],100 % of control and 101 % of control
Cc1cc(N=[N+]=[N-])c2ccc(Cl)cc2n1,T/C,[12],94 % of control
same,T/C,[13],100 % of control
C=C(N=NNc1ccccc1)c1ccccc1,T/C,[14],97 % of control
same,T/C,[15],101 % of control
same,T/C,[16],93 % of control
O=C1Cc2c(Cl)cccc2C(=S)N1,T/C,"dose: 50.0 mg/kg/injection, schedule: Q01DX001 (ip), vehicle: saline with Tween-80",100 % of control
same,T/C,"dose: 100.0 mg/kg/injection, schedule: Q01DX001 (ip), vehicle: saline with Tween-80",100 % of control
same,T/C,"dose: 200.0 mg/kg/injection, schedule: Q01DX001 (ip), vehicle: saline with Tween-80",100 % of control
